For one molecule, Kd results are on record in paper PMC5214259, “Identification of Guanosine 5′-diphosphate as Potential Iron Mobilizer: Preventing the Hepcidin-Ferroportin Interaction and Modulating the Interleukin-6/Stat-3 Pathway” (Scientific Reports, 2017).

Structures are written as SMILES.

As usually defined, the Kd is the free concentration of one partner at which half of the binding sites on the other are occupied at equilibrium, for simple one-to-one binding.

In the experiment the target is T1, hepcidin (Homo sapiens, UniProt P81172).
T1 construct: gene HAMP; hepcidin-25 (25 amino acid peptide hormone)
T1 sequence (P81172 60-84 limits assumed): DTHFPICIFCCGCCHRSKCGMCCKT
Put plainly: UV-visible absorption titration (Kd); thermal shift assay (SYPRO orange, Tm […] to […] °C with equimolar GDP). The format is binding.

As to `Nc1nc2c(ncn2[C@@H]2O[C@H](COP(=O)(O)OP(=O)(O)O)[C@@H](O)[C@H]2O)c(=O)[nH]1` [ZINC08215481, guanosine 5′-diphosphate], the Kd is 5.88 µM.
